Common to all, as to format: in vivo
For one data set, the system named is INR. In words: Single agent cycle dose modifier, warfarin sodium patient example. The conditions noted are these: for Current Level of Efficacy/CLTE: current cycle total dose 57, dose Oct. 21, marker Oct. 26, 2004; for Previous Level of Efficacy/PLTE: previous cycle total dose 60, seven-day cycle. From the text:
Warfarin Sodium (coumadin) is used in this example as a single agent. Table 1 illustrates a method of revising a drug dose in treating a patient with one pharamcologic […] modality to optimize pharmacologic outcome and to reduce the risk of an adverse drug event while assessing the clinical relevancy and validity of the measured surrogate marker.
In Table 1, Previous Cycle Total Dose (PCTD) is a value directly entered without new calculation. It is the cumulative amount of the agent administered during the previous treatment cycle as defined by the total amount of drug given over a fixed period of time, such as in chemotherapy, the total amount, e.g., mg/m^2, administered throughout the defined regimen period. In this single agent therapy example for chronic disease management, that is, prevention of venous thrombosis with warfarin sodium, the cycle becomes the total amount of warfarin sodium, in milligrams, administered over a seven-day period. The period is determined when the modifier is constructed.
Previous Level of Toxicity-Efficacy (PLTE) is a value directly entered such as from a lab report. It is the numerical value of a marker of toxicity or efficacy reported at the previous dose cycle adjustment (evaluated at a specified elapsed time sufficient to capture the nadir of the dose effect). The surrogate marker is selected when the dose modifier is constructed.
Current Level of Toxicity-Efficacy (CLTE) is also a value directly entered such as from a lab report. It is the numerical value of the marker of toxicity or efficacy reported with the current dose cycle. The surrogate marker is that value that illustrates the expression of the toxicity or efficacy of the agent on a specific and pre-selected value determined when the dose modifier is constructed. The value is selected based upon the agent, its pharmacologic properties and the disease condition under treatment. The confidence or validity of the marker is based upon its maturity of effect in that a nadir or cycle of effect is dynamic and may vary based upon the time span between receipt of the agent and sampling of the value. Therefore the value may be valid or invalid based upon this timing factor. If invalid, then the dose adjustment cannot be made. If valid, then the value is fully appreciated and the dose modification can be calculated. The surrogate marker is selected when the dose modifier is constructed.
Expected Current Level (ECL) is a comparative operator used to illustrate the mathematical expectation of the patient's response to the actual patient response to classify their individual response characteristics. […]

In another data set the test system is Platelets. In words: Lookup table: marker validity (nadir) window, Platelets. As to conditions: days elapsed between current dose and marker; for Platelets LL: lower limit of nadir range; for Platelets UL: upper limit of nadir range. The source says:
(§1) A lookup table has been constructed (see above example), in the form of a table, to represent the relationship of each trial Agent and its qualified Clinical Markers. This table includes information regarding the Maximum Dose and the Inverse Marker Applicability for each Agent. The gray cells on the Cycle Dose Modifier indicate these values.
(§2) The table also includes information regarding the nadir of applicability for each Agent—Marker combination. The range, in days and indicated as the Lower Limit and Upper limit, has been determined by calculating a percentage (20%) above and below the true nadir value when only a single value is known. Otherwise, the upper and lower nadir values are used. […] The values of Upper and Lower limits is shown as a property of the Association between Markers and Agents. The Relevancy of a Marker can be computed using the lookup table by comparing the number of days elapsed between the date of the application of the current dose and the date on which the Marker was taken to the upper and lower values for that Agent Marker Association. If the elapsed days are greater than or equal to the lower limit and less than or equal to the upper limit, then the calculations provided by the Cycle Dose Modifier are said to be relevant and thereby applicable as indicated in the yellow Marker Validity cell. The Relevancy of Cycle Dose Modifier Calculations for Agent 1 is based on the Validity of Marker for Agent 1 calculated by: =IF(and((($B13−B6)>=VLOOKUP(B$3,Validity!$A$3:$K$8,10)),((B$13−B6)<=VLOOKUP(B$3,Validity!$A$3:$K$8,11))),“valid”,“invalid”)

In another data set the test system is Neutrophil Count (ANC). In words: Lookup table: marker validity (nadir) window, Neutrophil Count (ANC). As to conditions: days elapsed between current dose and marker; for Neutrophil Count (ANC) LL: lower limit of nadir range; for Neutrophil Count (ANC) UL: upper limit of nadir range.
Description: as §1, §2

For a further data set, the system named is Hemoglobin (Hgb). Briefly: Lookup table: marker validity (nadir) window, Hemoglobin (Hgb). As to conditions: days elapsed between current dose and marker; for Hemoglobin (Hgb) LL: lower limit of nadir range; for Hemoglobin (Hgb) UL: upper limit of nadir range.
Description: as §1, §2

Data set [1] relates to LDL. Briefly: Non-Pharm Example 1: doublet Lipitor and aerobics, LDL marker. From the text: (§3) Efficacy/Toxicity Determinant Agent 2 (Gemzar) (ETD2) is a value determined by the prescriber. Set at an initial value of 1, this value is then adjusted based upon actual case scenarios with a full data set to adjust the value to identify the contribution to the toxicity or efficacy until the actual value is achieved. It can be used to modify dose based upon non-pharmacologic effects such as diet, exercise and activity as determined by the prescriber. A non-pharmacologic two-part combination therapy example could include a cholesterol lowering agent and exercise or cholesterol lowering agent and a restrictive diet. In place of dose the exercise value would be measured in ‘METS’ (Metabolic Equivalent of oxygen consumption) or the dietary prescription in calories or grams of fat or cholesterol.
Doublet Agent One: Pharmacologic, Agent Two:Non-Pharmacologic (Exercise)

For data set [2], the system named is LDL. Briefly: Non-Pharm Example 2: triplet Lipitor, aerobics and diet, LDL marker.
Description: as §3, with “Set” for “Efficacy/Toxicity Determinant Agent 2 (Gemzar) (ETD2) is a value determined by the prescriber. Set”, “three-part” for “two-part”, “agent,” for “agent and”, “exercise” for “exercise or cholesterol lowering agent”, “of” for “of fat or”
Triplet, Agent One: Pharmacologic, Agent Two: Non-Pharmacologic (Exercise), Agent Three: Diet (Grams of Cholesterol)

In the case of `CC(=O)CC(c1ccccc1)c1c(O)c2ccccc2oc1=O` (centres unmarked) [Warfarin Sodium], in the data set on INR (Comparison Cycle column), the “Current Level of Efficacy/CLTE” value is 3.80 and the “Previous Level of Efficacy/PLTE” value is on record as 4.50. Moreover, in the data set with INR (Current Cycle column), the “Current Level of Efficacy/CLTE” value is reported as 3.80 and the “Previous Level of Efficacy/PLTE” value amounted to 4.50.

Take `N.N.[Cl][Pt][Cl]` [Cisplatin]: in the data set with Platelets, the “Platelets LL” value is 18 days and the “Platelets UL” value is listed as 23 days. In the data set on Neutrophil Count (ANC), the “Neutrophil Count (ANC) LL” value is reported as 18 days and the “Neutrophil Count (ANC) UL” value is given as 23 days. In the data set with Hemoglobin (Hgb), the “Hemoglobin (Hgb) LL” value is 18 days and the “Hemoglobin (Hgb) UL” value is recorded as 23 days.

For `N.N.O=C([O-])C1(C(=O)[O-])CCC1.[Pt+2]` [Carboplatin], in the data set with Platelets, the “Platelets LL” value was 17 days and the “Platelets UL” value was 25 days. In the data set on Neutrophil Count (ANC), the “Neutrophil Count (ANC) LL” value was 17 days and the “Neutrophil Count (ANC) UL” value was 25 days. Also, in the data set on Hemoglobin (Hgb), the “Hemoglobin (Hgb) LL” value was found to be 14 days and the “Hemoglobin (Hgb) UL” value is reported as 21 days.

`Nc1ccn([C@@H]2O[C@H](CO)[C@@H](O)C2(F)F)c(=O)n1` [Gemzar]: in the data set with Platelets, the “Platelets LL” value stood at 7 days and the “Platelets UL” value is 10 days. In the data set with Neutrophil Count (ANC), the “Neutrophil Count (ANC) LL” value is reported as 7 days and the “Neutrophil Count (ANC) UL” value is listed as 10 days. In the data set on Hemoglobin (Hgb), the “Hemoglobin (Hgb) LL” value was 7 days and the “Hemoglobin (Hgb) UL” value was determined as 10 days.

With `CC(=O)O[C@@]12CO[C@@H]1C[C@H](O)[C@@]1(C)C(=O)[C@H](O)C3=C(C)[C@@H](OC(=O)[C@H](O)[C@@H](NC(=O)OC(C)(C)C)c4ccccc4)C[C@@](O)([C@@H](OC(=O)c4ccccc4)[C@H]21)C3(C)C` [Taxotere], in the data set on Platelets, the “Platelets LL” value turned out to be 6 days and the “Platelets UL” value was determined as 8 days. In addition, in the data set with Neutrophil Count (ANC), the “Neutrophil Count (ANC) LL” value was found to be 6 days and the “Neutrophil Count (ANC) UL” value amounted to 8 days. In the data set on Hemoglobin (Hgb), the “Hemoglobin (Hgb) LL” value is on record as 8 days and the “Hemoglobin (Hgb) UL” value was 11 days.

In the case of `CC(C)c1c(C(=O)Nc2ccccc2)c(-c2ccccc2)c(-c2ccc(F)cc2)n1CC[C@@H](O)C[C@@H](O)CC(=O)O` [Lipitor], in the data set on LDL [1] (current cycle Lipitor 280 with aerobics 168/week, marker Dec. 05, 2004), the “Current Level of Efficacy/CLTEM1” value came to 120. Also, in the data set with LDL [1] (previous cycle Lipitor 210 with aerobics 140/week), the “Previous Level of Efficacy/PLTEM1” value is reported as 150. Also, the “Current Level of Efficacy CLTEM1” value in the data set with LDL [2] (current cycle Lipitor 300.00 with aerobics 168/week and diet 182/week, marker Dec. 05, 2004) worked out at 122. Further, the “Previous Level of/PLTEM1” value in the data set on LDL [2] (previous cycle Lipitor 220.00 with aerobics 140/week and diet 210/week) came to 140.

Values taken from patent US20050154537A1, “Methods, program products, and systems for single and multi-agent dosing and other related methods” (priority 2003, published 2005).
